Structures are written as SMILES.

Assay [1] can be described thus: Antioxidant activity assessed as oxygen radical scavenging activity in presence of human plasma by ORAC method relative to control. It counts as functional, cell-free.
For the next assay, the system named is Plasma. In words: Antioxidant activity in human plasma assessed as inhibition of cholesteryl ester hydroperoxide formation after 60 mins relative to control. It is filed as functional.

As for `CCCCCC1(CCCCC)Cc2c(cc(C(C)(C)C)c(O)c2C(C)(C)C)O1` [BO-653], the Ratio AUC in assay [1] amounted to 1.23. Moreover, in the assay on Plasma, the Ratio came to 0.23.
Taken in the same sequence, the figures for `Oc1nc(O)c2nc(O)[nH]c2n1` [URIC ACID] were 1.52 and 0.78.

Source of the values: ChEMBL document CHEMBL1144039, “Antioxidant capacity of BO-653, 2,3-dihydro-5-hydroxy-4,6-di-tert-butyl-2,2-dipentylbenzofuran, and uric acid as evaluated by ORAC method and inhibition of lipid peroxidation” (2008).
